Range and IC50 data for three molecules are collected here from US20080299140A1, “Immunogenic Composition and Peptide Sequences for Prevention and Treatment of an Hsv Condition” (priority 2002, published 2008).

What is called IC50 is the point on the concentration scale where inhibition reaches its midpoint.

In assay [1] the test system is HLA-DR and HLA-DP molecules. The assay is described as follows: MHC class II binding assays, panel of twelve HLA class II molecules (number of alleles bound). To be noted: number of the twelve class II MHC alleles bound; title: Threshold 600 nM/5 alleles.
Assay [2] deals with T1, DP402 DP (α1*0101, α1*0402) (Homo sapiens, UniProt P04440+P20036, A65V/A84D/A85E/L207M).
T1 sequence (P20036 29-260): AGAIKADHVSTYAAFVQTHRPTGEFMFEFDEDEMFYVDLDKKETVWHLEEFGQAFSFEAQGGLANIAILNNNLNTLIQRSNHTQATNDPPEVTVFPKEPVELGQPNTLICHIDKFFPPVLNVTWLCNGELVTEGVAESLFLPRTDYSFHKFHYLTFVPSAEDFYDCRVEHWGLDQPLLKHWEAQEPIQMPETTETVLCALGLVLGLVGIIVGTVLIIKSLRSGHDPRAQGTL
T1 sequence (P04440 30-258 A65V/A84D/A85E): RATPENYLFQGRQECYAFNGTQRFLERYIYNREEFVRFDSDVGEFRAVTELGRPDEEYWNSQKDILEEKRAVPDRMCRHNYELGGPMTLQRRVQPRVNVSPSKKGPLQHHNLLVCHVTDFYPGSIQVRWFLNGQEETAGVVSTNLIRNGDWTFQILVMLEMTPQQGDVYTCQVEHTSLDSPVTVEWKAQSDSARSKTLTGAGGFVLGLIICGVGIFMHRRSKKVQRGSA
The assay is described as follows: biochemical. The format is binding.

Assay [3] concerns the target T2, DR1=HLA-DR(α1*0101,α1*0101) (Homo sapiens, UniProt P01903+P01911, A100R/D57E/F55L/F60I/F76Y/I96L/L162R/M171V/P40L/Q125E/R42F/V115G/Y59C).
T2 construct: endogenous in cells; host or cells: EBV homozygous human B cell line
The assay can be described thus: biochemical. To be noted: […]. In kind it is binding.

Assay [4] addresses T3, DR13=HLA-DR(α1*0101,α1*1301) (Homo sapiens, UniProt P01903+P01911, A100E/A169T/K41T/L162R/M171V/P40S/Q125H/Q178H/Q39Y/Q99D/R42S/S66N/T262R/W38E/Y61H).
T3 construct: endogenous in cells; host or cells: 0206AD (EBV homozygous B cell line)
The assay can be described thus: HLA-DR specific binding assay, DR13.

In assay [5] the target is T4, DP401=HLA-DP(α1*0101,α1*0401) (Homo sapiens, UniProt P04440+P20036).
T4 sequence (P20036 32-260 limits assumed): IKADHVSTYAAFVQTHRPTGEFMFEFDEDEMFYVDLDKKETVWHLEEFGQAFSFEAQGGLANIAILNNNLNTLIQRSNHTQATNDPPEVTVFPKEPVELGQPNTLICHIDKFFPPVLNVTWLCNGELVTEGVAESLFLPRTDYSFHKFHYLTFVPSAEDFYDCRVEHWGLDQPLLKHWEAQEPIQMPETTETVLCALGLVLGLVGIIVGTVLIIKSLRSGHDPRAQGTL
T4 sequence (P04440 30-258): T1 sequence (P04440 30-258 A65V/A84D/A85E) with V36A, D55A, E56A
The assay can be described thus: biochemical. The format is binding.

Assay [6] deals with T5, DRB4=HLA-DR(α1*0101,α4*0101) (Homo sapiens, UniProt P01903+P13762, G164S).
T5 construct: endogenous in cells
The assay is described as follows: HLA-DR specific binding assay, DRB4 (DR53).

The target in assay [7] is T6, DR3=HLA-DR(α1*0101,α1*0301) (Homo sapiens, UniProt P01903+P01911, A100K/A102G/A103R/A169T/F55Y/I96L/K41T/L162R/M171V/P40S/Q125H/Q178H/Q39Y/R42S/S66N/T106N/T262R/W38E/Y61H).
T6 construct: endogenous in cells; host or cells: STEILIN (EBV homozygous B cell line)
The assay can be described thus: HLA-DR specific binding assay, DR3.

In assay [8] the target is T7, DRB3=HLA-DR(α1*0101,α3*0101) (Homo sapiens, UniProt P01903+P79483).
T7 construct: endogenous in cells; host or cells: STEILIN or 0206AD (both typed DRB3*0101)
T7 sequence (P79483 30-266, other chains not shown): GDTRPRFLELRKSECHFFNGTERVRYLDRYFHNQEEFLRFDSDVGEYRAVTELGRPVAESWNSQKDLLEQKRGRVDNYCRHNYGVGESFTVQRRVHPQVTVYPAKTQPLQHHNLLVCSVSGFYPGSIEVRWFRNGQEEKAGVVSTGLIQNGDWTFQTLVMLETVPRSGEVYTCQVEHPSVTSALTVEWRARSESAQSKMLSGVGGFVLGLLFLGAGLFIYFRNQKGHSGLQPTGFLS
The assay can be described thus: HLA-DR specific binding assay, DRB3 (DR52).

Assay [9] deals with T8, DR15=HLA-DR(α1*0101,α1*1501) (Homo sapiens, UniProt P01903+P01911).
T8 construct: endogenous in cells; host or cells: EBV homozygous human B cell line
The assay can be described thus: HLA-DR specific binding assay, DR15.

Assay [10] has as its target T9, DR7=HLA-DR(α1*0101,α1*0701) (Homo sapiens, UniProt P01903+P01911, A100R/A102G/A103Q/D57E/D86V/E43K/F76Y/K127E/L162R/M171V/P40G/Q125H/Q99D/R33Q/R42Y/R54Q/S133A/S66F/T210M/V115G/Y107V/Y59L/Y89S).
T9 construct: endogenous in cells; host or cells: EBV homozygous human B cell line
The assay is described as follows: HLA-DR specific binding assay, DR7.

Assay [11] deals with T10, DRB5=HLA-DR(α1*0101,α5*0101) (Homo sapiens, UniProt P01903+Q30154).
T10 construct: endogenous in cells; host or cells: EBV homozygous human B cell line
T10 sequence (Q30154 30-266, other chains not shown): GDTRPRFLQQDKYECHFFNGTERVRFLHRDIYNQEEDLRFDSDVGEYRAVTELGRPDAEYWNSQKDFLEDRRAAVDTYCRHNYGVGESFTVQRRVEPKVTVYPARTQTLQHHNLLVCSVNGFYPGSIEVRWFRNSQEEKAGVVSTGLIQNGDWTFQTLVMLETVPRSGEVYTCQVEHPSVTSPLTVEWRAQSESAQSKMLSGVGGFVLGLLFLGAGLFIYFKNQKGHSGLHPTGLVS
The assay can be described thus: biochemical. To be noted: Table V; […]; read-out: IC50 DRB5. The format is binding.

The target in assay [12] is T11, DR11=HLA-DR(α1*0101,α1*1101) (Homo sapiens, UniProt P01903+P01911, A100R/A169T/A87E/I96F/K41T/L162R/M171V/P40S/Q125H/Q178H/Q39Y/Q99D/R42S/S66Y/T262R/V115G/W38E).
T11 construct: endogenous in cells; host or cells: SWEIG (EBV homozygous B cell line)
The assay can be described thus: biochemical. In kind it is binding.

The target of assay [13] is T12, DR4=HLA-DR(α1*0101,α1*0401) (Homo sapiens, UniProt P01903+P01911, A100K/A169T/F76Y/I96L/K127E/L162R/M171V/N62H/P40V/Q125Y/R42H/S133A/S149N/S66Y/V115G/V209L/W38E).
T12 construct: endogenous in cells; host or cells: BOLETH (EBV homozygous B cell line)
The assay can be described thus: biochemical. In kind it is binding.

[14] abbreviates: Class II MHC allele DR1, read-out: IC50, DR1.
The mark [15] stands for this setting: IC50, DR3, Class II MHC allele DR3.
Setting [16] is: IC50, DRD3, Class II MHC allele DRD3 (so in the source).
Where [17] appears, read: Class II MHC allele DR11, read-out: IC50, DR11.
[18] abbreviates: Table V, […], read-out: IC50 DR11.
[19] abbreviates: Class II MHC allele DR4, read-out: IC50, DR4.
The mark [20] stands for this setting: Table V, […], read-out: IC50 DR4.

Substitutions are numbered along the chain they refer to. Read-outs that look alike come from different tables or passages of the source.

Molecule `CC[C@H](C)[C@H](NC(=O)[C@H](CCSC)NC(=O)[C@H](CCC(=O)O)NC(=O)[C@H](CCCNC(=N)N)NC(=O)[C@H](C)NC(=O)[C@H](CCC(=O)O)NC(=O)[C@H](C)NC(=O)[C@H](CC(C)C)NC(=O)[C@@H](N)CCCCN)C(=O)N[C@@H](CCCNC(=N)N)C(=O)N[C@@H](Cc1ccc(O)cc1)C(=O)N[C@@H](CCSC)C(=O)N[C@@H](C)C(=O)N[C@@H](CC(C)C)C(=O)N[C@H](C(=O)N[C@@H](CO)C(=O)N[C@@H](C)C(=O)N[C@@H](CCSC)C(=O)N[C@@H](CCC(=O)O)C(=O)N[C@@H](CCCNC(=N)N)C(=O)N[C@H](C(=O)N[C@@H](CCC(=O)O)C(=O)N[C@@H](Cc1c[nH]cn1)C(=O)N[C@@H](CCCCN)C(=O)N[C@@H](C)C(=O)N[C@@H](CCCCN)C(=O)N[C@@H](CCCCN)C(=O)N[C@@H](CCCCN)C(=O)NCC(=O)N[C@H](C(=O)N[C@@H](CO)C(=O)N[C@@H](C)C(=O)O)[C@@H](C)O)[C@@H](C)O)C(C)C` [HSV 1] registered a Range in assay [1] of 10. The half-inhibitory concentration (IC50) in assay [2] (Class II MHC allele DP402) stood at 240 nM; in [2] (Table V, […]), 240 nM; in assay [3] (Table V, read-out: IC50 DR1), 6 nM; in assay [3] (setting [14]), 6 nM; in assay [4], 284 nM; in assay [5] (Class II MHC allele DP401), 1610 nM. Also, the IC50 was 1610 nM in [5] (Table V, […]); 43 nM in [6]; 995 nM in assay [7] (setting [15]); 995 nM in assay [7] (IC50 DR3, Table V, […]); > 100 µM in assay [8] (setting [16]); > 100 µM in [8] (IC50 DRB3, Table V, […]). Also, the IC50 was found to be 3 nM in assay [9]; 296 nM in [10]; 6 nM in [11]; 13 nM in assay [12] (setting [17]); 13 nM in [12] (setting [18]); 37 nM in assay [13] (setting [19]). Further, the IC50 in [13] (setting [20]) was found to be 37 nM.
`CSCC[C@H](NC(=O)[C@@H](NC(=O)[C@H](Cc1ccc(O)cc1)NC(=O)[C@H](CCCNC(=N)N)NC(=O)[C@@H](N)Cc1ccccc1)C(C)C)C(=O)N[C@@H](CCCNC(=N)N)C(=O)N[C@@H](CC(C)C)C(=O)N[C@@H](CCC(N)=O)C(=O)N[C@@H](CO)C(=O)N[C@@H](CC(N)=O)C(=O)N1CCC[C@H]1C(=O)N[C@@H](CCSC)C(=O)N[C@@H](CCCCN)C(=O)N[C@@H](C)C(=O)N[C@@H](CC(C)C)C(=O)N[C@@H](Cc1ccc(O)cc1)C(=O)N1CCC[C@H]1C(=O)N[C@@H](CC(C)C)C(=O)N[C@H](C(=O)N[C@H](C(=O)N[C@@H](CCCCN)C(=O)N[C@@H](CCC(=O)O)C(=O)N[C@@H](CC(C)C)C(=O)N[C@@H](CCCCN)C(=O)N[C@@H](CC(N)=O)C(=O)N1CCC[C@H]1C(=O)N[C@H](C(=O)N[C@@H](CC(N)=O)C(=O)N1CCC[C@H]1C(=O)N[C@@H](CC(=O)O)C(=O)N[C@@H](C)C(=O)N[C@@H](CO)C(=O)NCC(=O)N[C@@H](CCC(=O)O)C(=O)NCC(=O)O)[C@@H](C)O)[C@@H](C)O)[C@@H](C)O` [HSV 8] returned a Range in assay [1] of 10. In addition, the IC50 was 32 nM in assay [2] (Class II MHC allele DP402); 32 nM in [2] (Table V, […]); 2 nM in [3] (Table V, read-out: IC50 DR1); 2 nM in assay [3] (setting [14]); 314 nM in assay [4]; 107 nM in assay [5] (Class II MHC allele DP401). Also, the IC50 in assay [5] (Table V, […]) came to 107 nM; in [6], 232 nM; in assay [7] (setting [15]), 4780 nM; in [7] (IC50 DR3, Table V, […]), 4780 nM; in [8] (setting [16]), 55 µM; in assay [8] (IC50 DRB3, Table V, […]) it was 55 µM. In addition, the IC50 in [9] was 3 nM; in [10], 20 nM; in assay [11] it was 2 nM; in assay [12] (setting [17]), 4 nM; in assay [12] (setting [18]), 4 nM; in assay [13] (setting [19]), 12 nM. Also, the IC50 in assay [13] (setting [20]) amounted to 12 nM.
For the molecule `CC[C@H](C)[C@H](NC(=O)[C@H](CCCCN)NC(=O)[C@H](CC(C)C)NC(=O)[C@H](CO)NC(=O)[C@H](Cc1ccc(O)cc1)NC(=O)[C@@H](NC(=O)[C@H](C)NC(=O)[C@@H](NC(=O)[C@@H](NC(=O)[C@H](CCCNC(=N)N)NC(=O)[C@@H](N)CCC(N)=O)[C@@H](C)O)C(C)C)C(C)C)C(=O)N[C@@H](C)C(=O)NCC(=O)N[C@@H](Cc1c[nH]c2ccccc12)C(=O)N[C@@H](Cc1c[nH]cn1)C(=O)NCC(=O)N1CCC[C@H]1C(=O)N[C@@H](CCCCN)C(=O)N[C@@H](C)C(=O)N1CCC[C@H]1C(=O)N[C@@H](Cc1ccc(O)cc1)C(=O)N[C@H](C(=O)N[C@@H](CO)C(=O)N[C@H](C(=O)N[C@@H](CC(C)C)C(=O)N[C@@H](CC(C)C)C(=O)N1CCC[C@H]1C(=O)N1CCC[C@H]1C(=O)N[C@@H](CCC(=O)O)C(=O)N[C@@H](CC(C)C)C(=O)O)[C@@H](C)O)[C@@H](C)O` [HSV 40], the Range in assay [1] is 4. Moreover, the IC50 in assay [2] (Class II MHC allele DP402) amounted to 7210 nM; in assay [2] (Table V, […]), 7210 nM; in assay [3] (Table V, read-out: IC50 DR1), 1160 nM; in [3] (setting [14]), 1160 nM; in [4], 1590 nM; in assay [5] (Class II MHC allele DP401), 1360 nM. Besides, the IC50 in assay [5] (Table V, […]) is 1360 nM; in assay [6], 1160 nM; in [7] (setting [15]), 2390 nM; in assay [7] (IC50 DR3, Table V, […]), 2390 nM; in assay [8] (setting [16]), > 100 µM; in assay [8] (IC50 DRB3, Table V, […]) it was > 100 µM. The IC50 in assay [9] stood at 2 nM; in [10], 20 nM; in assay [12] (setting [17]), 39 nM; in [12] (setting [18]), 39 nM; in assay [13] (setting [19]), 9920 nM; in assay [13] (setting [20]) it was 9920 nM.
